Test results taken from PMC4604124, “In Vitro Characterization of the Pharmacological Properties of the Anti-Cancer Chelator, Bp4eT, and Its Phase I Metabolites” (PLoS ONE, 2015).
Where “and” joins values, the source holds several entries; their conditions need not be identical. Equal entries are not always repeated.

Columns and labels:
[1] = Ascorbate oxidation assay (redox activity of iron complexes); format: biochemical;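 as to %Fe 30min (ascorbate oxidation, Fe 100%), průměr: IBE 3 means excess free chelator over iron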;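 as to %Fe 30min (ascorbate oxidation, Fe 100%): IBE 3 means excess free chelator over iron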;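 as to Change of absorbance, odečet 0 (time 0 subtracted), čas 10, průměr: IBE 3 means excess free chelator over 10 µM FeCl3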;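 as to Change of absorbance, odečet 0 (time 0 subtracted), čas 10: IBE 3 means excess free chelator over 10 µM FeCl3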
Protocol: The ascorbate oxidation assay was used to assess the redox activity of the iron complexes of the chelators using an established protocol. In brief, 100 μM ascorbic acid was prepared immediately prior to the experiment and incubated either alone or in the presence of 10 μM FeCl3 in a 50-fold molar excess (500 μM) of citrate and the chelators. Chelators were assayed at iron-binding equivalents (IBE) of 0.1 (excess of iron), 1 (fully coordinated iron—chelator complexes) and 3 (excess of free chelator). […] The decrease of absorbance between the two time points was calculated and expressed as a percentage of control without the chelator.

[2] = system: 3T3 mouse embryo fibroblasts; test: MTT cytotoxicity assay, 3T3 cells; format: cell-based; details: for MTT viability (0 = 100): 3T3, 10 000 b/j, individual experiments
Protocol: For cytotoxicity experiments, cancer cells were seeded at a density of 5,000 (MCF-7), 10,000 (HL-60) or 2,000 cells/well (HCT116 and A549) in 96-well plates (TPP) for 24 h/37°C prior to the addition of examined agents. The non-cancerous cells, 3T3 and H9c2 cells, were cultured for 24 h/37°C in 96-well plates at a density of 10,000 cells/well, the medium was then changed to serum- and pyruvate-free DMEM (Sigma-Aldrich) and incubated with the cells for another 24 h/37°C. The cytotoxic effects of Bp4eT and its metabolites were studied at different concentrations after a 72 h/37°C incubation. In order to aid the dissolution of the lipophilic ligands, 0.1% dimethyl sulfoxide (v/v) (DMSO; Sigma-Aldrich) was present in the culture medium of all groups. At this concentration, DMSO had no effect on cellular proliferation or viability.
The viability of cells were determined using an MTT assay (Sigma-Aldrich) according to previously established methods. The optical density of soluble MTT was measured at λ = 570 nm, subtracting the λ = 690 nm background using a Tecan Infinite 200M plate reader (Tecan Group, Männedorf, Switzerland). The viability or proliferation of experimental groups was expressed as a percentage of the untreated controls (100%).
SigmaStat for Windows 3.5 (Systat Software, San Jose, CA, USA) statistical software package was utilized to analyze results. The data are expressed as the mean ± SD of a given number of experiments. Statistical significance was determined using a one-way ANOVA with a Bonferroni post-hoc test or Student’s t-test. The results were considered to be statistically significant when p < 0.05. The IC50 values were calculated using CalcuSyn 2.0 software (Biosoft, Cambridge, UK). Cell cycle analysis was evaluated using MultiCycle AV Software (Phoenix Flow Systems, San Diego, CA, USA).

[3] = sheet IBE 1, time 10, replicates
[4] = sheet IBE 1, time 20, replicates
[5] = sheet IBE 1, time 30, replicates

## CCNC(=O)NN=C(c1ccccc1)c1ccccn1 [E-Bp4eS, 2-benzoylpyridine 4-ethylsemicarbazone]
[1]; sheet IBE 1, 30min, Fe 100%, mean
  %Fe 30min (ascorbate oxidation, Fe = 100%), průměr (mean): 115.7%
[1]; sheet IBE 1, 30min, Fe 100%, replicates
  %Fe 30min (ascorbate oxidation, Fe = 100%), single replicates: 118.6% and 122% and 108.4% and 125.1% and 134.4% and 115.2% and 110.6% and 115.1% and 91.71%
[1]; sheet IBE 1, time 0, mean of 9 readings
  raw reading at čas 0 (time 0), průměr (mean): 0.822
[1]; sheet IBE 1, time 0, replicates of 2014-03-24 (two runs) and 2014-03-25
  raw reading at čas 0 (time 0), single replicates: 0.8574 and 0.8322 and 0.8144 and 0.8238 and 0.8106 and 0.8047 and 0.8172 and 0.7979 and 0.8393
[1]; sheet IBE 1, time 10, mean
  odečet 0 (reading minus time 0 reading) at čas 10, průměr (mean): -0.03765
[1]; sheet IBE 1, time 10, mean of 9 readings
  raw reading at čas 10 (time 10), průměr (mean): 0.7843
[1]; [3]
  odečet 0 (reading minus time 0 reading) at čas 10, single replicates: -0.03642 and -0.03472 and -0.03462 and -0.04217 and -0.04047 and -0.03637 and -0.03597 and -0.05027 and -0.02787
  raw reading at čas 10 (time 10), single replicates: 0.778 and 0.7891 and 0.776 and 0.7626 and 0.7768 and 0.7616 and 0.8033 and 0.8071 and 0.8043
[1]; sheet IBE 1, time 20, mean
  odečet 0 (reading minus time 0 reading) at čas 20, průměr (mean): -0.07141
[1]; sheet IBE 1, time 20, mean of 9 readings
  raw reading at čas 20 (time 20), průměr (mean): 0.7506
[1]; [4]
  odečet 0 (reading minus time 0 reading) at čas 20, single replicates: -0.07064 and -0.07124 and -0.06354 and -0.07877 and -0.08537 and -0.07037 and -0.07092 and -0.07622 and -0.05562
  raw reading at čas 20 (time 20), single replicates: 0.7438 and 0.7526 and 0.7471 and 0.726 and 0.7319 and 0.7276 and 0.7684 and 0.7812 and 0.7766
[1]; sheet IBE 1, time 30, mean
  odečet 0 (reading minus time 0 reading) at čas 30, průměr (mean): -0.1028
[1]; sheet IBE 1, time 30, mean of 9 readings
  raw reading at čas 30 (time 30), průměr (mean): 0.7192
[1]; [5]
  odečet 0 (reading minus time 0 reading) at čas 30, single replicates: -0.1024 and -0.1054 and -0.09363 and -0.1081 and -0.1161 and -0.09952 and -0.1043 and -0.1086 and -0.08655
  raw reading at čas 30 (time 30), single replicates: 0.712 and 0.7184 and 0.717 and 0.6966 and 0.7011 and 0.6984 and 0.735 and 0.7488 and 0.7457
[1]; sheet IBE 3, 30min, Fe alone = 100%, mean (průměr) of the 9 replicates
  %Fe 30min (ascorbate oxidation, Fe 100%), průměr: 117.9%
[1]; sheet IBE 3, 30min, Fe alone = 100%, single replicates
  %Fe 30min (ascorbate oxidation, Fe 100%): 124.2% and 115.8% and 108.1% and 126.9% and 132.9% and 126% and 114.7% and 109.6% and 103.1%
[1]; sheet IBE 3, time 10 minus time 0, mean (průměr)
  Change of absorbance, odečet 0 (time 0 subtracted), čas 10, průměr: -0.04086
[1]; sheet IBE 3, time 10 minus time 0, single replicates
  Change of absorbance, odečet 0 (time 0 subtracted), čas 10: -0.04474 and -0.03234 and -0.03864 and -0.04417 and -0.05097 and -0.04457 and -0.03984 and -0.03894 and -0.03354
[1]; sheet IBE 3, time 20 minus time 0, mean (průměr)
  Change of absorbance, odečet 0 (time 0 subtracted), čas 20, průměr: -0.076
[1]; sheet IBE 3, time 20 minus time 0, single replicates
  Change of absorbance, odečet 0 (time 0 subtracted), čas 20: -0.0807 and -0.0703 and -0.071 and -0.08341 and -0.08461 and -0.08331 and -0.07425 and -0.07045 and -0.06595
[1]; sheet IBE 3, time 30 minus time 0, mean (průměr)
  Change of absorbance, odečet 0 (time 0 subtracted), čas 30, průměr: -0.109
[1]; sheet IBE 3, time 30 minus time 0, single replicates
  Change of absorbance, odečet 0 (time 0 subtracted), čas 30: -0.1153 and -0.1075 and -0.1003 (2×) and -0.1178 and -0.1233 and -0.1169 and -0.105 and -0.09439
[2]; koncentrace 1 μM
  MTT viability (0 = 100): 96.8721 and 104.341 and 100.156 and 97.6643
[2]; koncentrace 3 μM
  MTT viability (0 = 100): 91.697 and 99.6923 and 92.7572 and 93.5961
[2]; koncentrace 10 μM
  MTT viability (0 = 100): 87.504 and 95.4305 and 94.9836 and 95.1509
[2]; koncentrace 30 μM
  MTT viability (0 = 100): 95.2772 and 94.6873 and 87.6265 and 86.7904
[2]; koncentrace 100 μM
  MTT viability (0 = 100): 89.4336 and 75.046 and 83.8477
[2]; koncentrace 300 μM
  MTT viability (0 = 100): 87.9502 and 69.8243 and 82.8158
[2]; koncentrace 1000 μM
  MTT viability (0 = 100): 61.3011 and 59.7855 and 71.6828
[2]; Mus musculus, Fibroblast, 72 h, 3T3, 72 h/37°C, MTT, mean ± SD, n ≥ 4, read-out: IC50
  IC50: > 1000 µM
